# Measurements from ChEMBL document CHEMBL1201862, “PubChem BioAssay data set” (2004).
#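 Tested at 5 concentrations; 48 h exposure; 96-well plates; endpoints linearly interpolated, else capped at highest concentration. Here, GI50 denotes the concentration required for 50% inhibition of growth.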 The source made the active and inactive calls. Cut-off read from the data, not from the text of the source: active = GI50 up to about 1.1 µM and inactive = higher.
# Columns and labels:
# Experiment in all cases: NCI anticancer screen, dose series, 48 h
# SF-539 = test system: SF-539
# NCI-H460 = test system: NCI-H460
# SNB-19 = test system: SNB-19
# DU-145 = test system: DU-145
# MDA-N = test system: MDA-N
# K562 = test system: K562
# TK-10 = test system: TK-10
# UACC-257 = test system: UACC-257
# PC-3 = test system: PC-3
# NCI/ADR-RES = test system: NCI/ADR-RES
# ACHN = test system: ACHN
# UO-31 = test system: UO-31
# NCI-H226 = test system: NCI-H226
# HOP-92 = test system: HOP-92
# MOLT-4 = test system: MOLT-4
# NCI-H23 = test system: NCI-H23
# HOP-62 = test system: HOP-62
# HCT-15 = test system: HCT-15
# 786-0 = test system: 786-0
# SF-295 = test system: SF-295
# A498 = test system: A498
# UACC-62 = test system: UACC-62
# U-251 = test system: U-251
# KM12 = test system: KM12
# MDA-MB-231 = test system: MDA-MB-231
# OVCAR-8 = test system: OVCAR-8
# RPMI-8226 = test system: RPMI-8226
# MCF7 = test system: MCF7
# CAKI-1 = test system: CAKI-1
# COLO 205 = test system: COLO 205
# HL-60 = test system: HL-60
# BT-549 = test system: BT-549
# EKVX = test system: EKVX
# RXF 393 = test system: RXF 393
# SF-268 = test system: SF-268
# SNB-75 = test system: SNB-75
# CCRF-CEM = test system: CCRF-CEM
# Hs-578T = test system: Hs-578T
# OVCAR-5 = test system: OVCAR-5
# LOX IMVI = test system: LOX IMVI
# SK-MEL-28 = test system: SK-MEL-28
# M14 = test system: M14
# SK-MEL-5 = test system: SK-MEL-5
# HCC 2998 = test system: HCC 2998
# HCT-116 = test system: HCT-116
# OVCAR-4 = test system: OVCAR-4
# SW-620 = test system: SW-620
# A549 = test system: A549
# MDA-MB-435 = test system: MDA-MB-435
# HT-29 = test system: HT-29
# Malme-3M = test system: Malme-3M
# SK-OV-3 = test system: SK-OV-3
# SN12C = test system: SN12C
# SK-MEL-2 = test system: SK-MEL-2
# OVCAR-3 = test system: OVCAR-3
# IGROV-1 = test system: IGROV-1
# NCI-H522 = test system: NCI-H522
# SR = test system: SR
compound,measurement,setting,value
COc1c(N2CCCCC2)c2c(=O)c3ccccc3oc2c2cc(C)oc12,GI50,SF-539,35.9 µM (inactive)
same,GI50,NCI-H460,7.78 µM (inactive)
same,GI50,SNB-19,40 µM (inactive)
same,GI50,DU-145,17.9 µM (inactive)
same,GI50,MDA-N,23.7 µM (inactive)
same,GI50,K562,6.1 µM (inactive)
same,GI50,TK-10,37.6 µM (inactive)
same,GI50,UACC-257,33 µM (inactive)
same,GI50,PC-3,12.7 µM (inactive)
same,GI50,NCI/ADR-RES,15.3 µM (inactive)
same,GI50,ACHN,5.6 µM (inactive)
same,GI50,UO-31,11.3 µM (inactive)
same,GI50,NCI-H226,13.3 µM (inactive)
same,GI50,HOP-92,7.45 µM (inactive)
same,GI50,MOLT-4,4.03 µM (inactive)
same,GI50,NCI-H23,18.5 µM (inactive)
same,GI50,HOP-62,9.91 µM (inactive)
same,GI50,HCT-15,16.7 µM
same,GI50,786-0,6.35 µM (inactive)
same,GI50,SF-295,18.8 µM (inactive)
same,GI50,A498,16 µM (inactive)
same,GI50,UACC-62,17.8 µM (inactive)
same,GI50,U-251,24.4 µM (inactive)
same,GI50,KM12,16.5 µM (inactive)
same,GI50,MDA-MB-231,5.26 µM (inactive)
same,GI50,OVCAR-8,16.9 µM (inactive)
same,GI50,RPMI-8226,5.94 µM (inactive)
same,GI50,MCF7,16.7 µM (inactive)
same,GI50,CAKI-1,14.1 µM (inactive)
same,GI50,COLO 205,4.09 µM (inactive)
same,GI50,HL-60,20.9 µM (inactive)
same,GI50,BT-549,21.5 µM (inactive)
same,GI50,EKVX,25.9 µM (inactive)
same,GI50,RXF 393,15.6 µM (inactive)
same,GI50,SF-268,17.9 µM (inactive)
same,GI50,SNB-75,11.3 µM (inactive)
same,GI50,CCRF-CEM,8.63 µM (inactive)
same,GI50,Hs-578T,18.4 µM (inactive)
same,GI50,OVCAR-5,23.5 µM (inactive)
same,GI50,LOX IMVI,14 µM (inactive)
same,GI50,SK-MEL-28,25.4 µM (inactive)
same,GI50,M14,14.8 µM (inactive)
same,GI50,SK-MEL-5,16.5 µM (inactive)
same,GI50,HCC 2998,18.5 µM (inactive)
same,GI50,HCT-116,2.34 µM (inactive)
same,GI50,OVCAR-4,13.9 µM (inactive)
same,GI50,SW-620,8.81 µM (inactive)
same,GI50,A549,18.2 µM (inactive)
same,GI50,MDA-MB-435,28.6 µM (inactive)
same,GI50,HT-29,3.87 µM (inactive)
same,GI50,Malme-3M,19.3 µM (inactive)
same,GI50,SK-OV-3,28.1 µM (inactive)
same,GI50,SN12C,24.8 µM (inactive)
same,GI50,SK-MEL-2,15.9 µM (inactive)
same,GI50,OVCAR-3,18.8 µM (inactive)
O=C(O)c1nc2ccc(C(F)(F)F)cc2nc1Nc1ccc(F)cc1,GI50,NCI-H460,16.1 µM (inactive)
same,GI50,SNB-19,> 10 µM (inactive)
same,GI50,DU-145,21.2 µM (inactive)
same,GI50,MDA-N,27.5 µM (inactive)
same,GI50,K562,11.2 µM (inactive)
same,GI50,TK-10,36.6 µM (inactive)
same,GI50,UACC-257,22.3 µM (inactive)
same,GI50,PC-3,15 µM (inactive)
same,GI50,NCI/ADR-RES,20.2 µM (inactive)
same,GI50,ACHN,21.4 µM (inactive)
same,GI50,UO-31,12 µM (inactive)
same,GI50,NCI-H226,18.1 µM (inactive)
same,GI50,IGROV-1,20.7 µM (inactive)
same,GI50,MOLT-4,9.57 µM (inactive)
same,GI50,NCI-H23,15.2 µM (inactive)
same,GI50,HOP-62,17.1 µM (inactive)
same,GI50,HCT-15,20.7 µM
same,GI50,786-0,20 µM (inactive)
same,GI50,SF-295,11.5 µM (inactive)
same,GI50,A498,16.9 µM (inactive)
same,GI50,UACC-62,11.7 µM (inactive)
same,GI50,U-251,7.38 µM (inactive)
same,GI50,KM12,18.6 µM (inactive)
same,GI50,MDA-MB-231,25.1 µM (inactive)
same,GI50,NCI-H522,6.07 µM (inactive)
same,GI50,OVCAR-8,17.2 µM (inactive)
same,GI50,MCF7,23 µM (inactive)
same,GI50,CAKI-1,30 µM (inactive)
same,GI50,COLO 205,19.5 µM (inactive)
same,GI50,HL-60,12.6 µM (inactive)
same,GI50,BT-549,12.5 µM (inactive)
same,GI50,EKVX,20.7 µM (inactive)
same,GI50,RXF 393,14.4 µM (inactive)
same,GI50,SF-268,15.5 µM (inactive)
same,GI50,SNB-75,23.3 µM (inactive)
same,GI50,Hs-578T,36.4 µM (inactive)
same,GI50,OVCAR-5,28.4 µM (inactive)
same,GI50,LOX IMVI,18.5 µM (inactive)
same,GI50,SK-MEL-28,37.6 µM (inactive)
same,GI50,SK-MEL-5,18 µM (inactive)
same,GI50,HCC 2998,15.7 µM (inactive)
same,GI50,HCT-116,15.1 µM (inactive)
same,GI50,SR,12.1 µM (inactive)
same,GI50,OVCAR-4,22.6 µM (inactive)
same,GI50,SW-620,23.6 µM (inactive)
same,GI50,MDA-MB-435,17.6 µM (inactive)
same,GI50,HT-29,28.1 µM (inactive)
same,GI50,Malme-3M,15.4 µM (inactive)
same,GI50,SN12C,26.8 µM (inactive)
same,GI50,SK-MEL-2,15.3 µM (inactive)
same,GI50,OVCAR-3,12.2 µM (inactive)
